Experimental data reported in patent US20130011479A1, “DOUBLE-LAYER PHARMACEUTICAL FORMULATIONS CONTAINING OPIOID AGONISTS AND ANTAGONISTS” (L. MOLTENI & C. DEI FRATELLI ALITTI SOCIETA' DI ESERCIZIO …, priority 2010, published 2013).

Assays:
[1] = Intrathecal screening of patients treated with opioids: adverse events / side-effects monitored at several time points; assay type: in vivo; parameters: key to vertigo / vomiting / pruritus / nausea / numbness / side-effects (grade printed beside morphine) / drowsiness / constipation / loss of appetite / urinary retention / sweating: (0) = none; (1) = mild; (2) = moderate; (3) = intense; (4) = severe
Description: (§1) A dose of opioids was administered with or without naltrexone and the adverse events or side-effects and anti-nociceptive effects were monitored at several time points.
(§2) In particular, patients with chronic (non-oncological) spinal pain and oncological patients in the non-terminal phase with evidence of side effects after minimum doses of opioids were monitored.

[2] = Intrathecal screening of patients treated with opioids: anti-nociceptive effects (Efficacy) monitored at several time points; assay type: in vivo
Description: Patients being treated with opioids underwent intrathecal screening, in which the evidence of side effects is extremely significant.
as §1, §2

[3] = Algoneurodystrophy, 2 h, without naltrexone
[4] = Back pain, 1 h, without naltrexone
[5] = Back pain, 2 h, without naltrexone
[6] = Back pain, 4 h, without naltrexone
[7] = Back pain, 24 h, without naltrexone
[8] = Cancer of the pancreas, without naltrexone
[9] = Diabetes mellitus type II, without naltrexone
[10] = Lumbago, 4 h, without naltrexone
[11] = Lumbago, 6 h, without naltrexone
[12] = Lumbago, 8 h, without naltrexone
[13] = Lumboischialgia in diabetic patients (VAS 6-7), without naltrexone
[14] = Lumboischialgia, without naltrexone
[15] = Lumbosacral spondylitis without myelopathy, 2 h-4 h, without naltrexone
[16] = Multiple sclerosis, without naltrexone
[17] = Nonspecific coccyx disorders, 6 h, without naltrexone
[18] = Persistent pain syndrome, without naltrexone
[19] = Right lumboischialgia, without naltrexone
[20] = Secondary bone and marrow malignancies (patient at r66), without naltrexone
[21] = Secondary bone and marrow malignancies (patient at r76), without naltrexone
[22] = Secondary malignancies of bone and marrow, without naltrexone
[23] = Stenosis of the lumbar spinal canal, without naltrexone
[24] = Persistent pain syndrome, with naltrexone
[25] = Right lumboischialgia, with naltrexone
[26] = Right lumboischialgia, with naltrexone, first mention in the cell
[27] = Right lumboischialgia, with naltrexone, second mention in the cell
[28] = Secondary bone and marrow malignancies (patient at r66), with naltrexone
[29] = Spinal pain, 4 h, with naltrexone
[30] = Spinal pain, 6 h, with naltrexone

For `CN1CC[C@]23c4c5ccc(O)c4O[C@H]2[C@@H](O)C=C[C@H]3[C@H]1C5` [morphine], the pruritus ([1]; Algoneurodystrophy, 6-8 h, without naltrexone) was 6-8 h: pruritus (3), urinary, the pruritus ([1]; Algoneurodystrophy, 1 h, without naltrexone) was 1 h: pruritus (3) and the pruritus [1, 3] was 2 h: pruritus (3). For the same compound, the vertigo ([1]; Back pain, 30 min, without naltrexone) was 30 min: vertigo (1), the nausea [1, 4] was 1 h: vertigo (1), nausea (1) and the vertigo [1, 4] was 1 h: vertigo (1), nausea (1). For the same compound, the vertigo [1, 5] was 2 h: vertigo (2), vomiting (2), the vomiting [1, 5] was 2 h: vertigo (2), vomiting (2) and the nausea [1, 6] was 3. The vertigo [1, 6] was 2, the vomiting [1, 6] was “vomiting (2)” and the pruritus ([1]; Back pain, 8 h, without naltrexone) was 8 h: pruritus (2). For the same compound, the nausea [1, 7] was 24 h: nausea (2), vertigo (2), the vertigo [1, 7] was 24 h: nausea (2), vertigo (2) and the constipation [1, 8] was “constipation”. It also gave a nausea [1, 8] of 3, a nausea [1, 9] of 3 and a pruritus [1, 9] of 4. For the same compound, the drowsiness ([1]; Lumbago, 1 h, without naltrexone) was 1 h: drowsiness (1), the nausea [1, 10] was 4 h: nausea (2), vomiting (2) and the vomiting [1, 10] was 4 h: nausea (2), vomiting (2). For the same compound, the nausea [1, 11] was 3, the pruritus [1, 11] was 6 h: pruritus (3), urinary reten- and the vomiting [1, 11] was 2. For the same compound, the nausea [1, 12] was 3, the pruritus [1, 12] was “pruritus (3), urinary retention (3)” and the vomiting [1, 12] was 2. The constipation [1, 13] was “constipation”, the drowsiness [1, 13] was “drowsiness” and the nausea [1, 13] was “nausea”. For the same compound, the oedema [1, 13] was “moderate”, the pruritus [1, 13] was “pruritus” and the nausea [1, 14] was “nausea (2),”. The pruritus [1, 14] was 2, the sweating [1, 14] was “sweating (2), vertigo (2),” and the vertigo [1, 14] was “sweating (2), vertigo (2),”. For the same compound, the vomiting [1, 14] was 3, the nausea [1, 15] was “nausea” and the vomiting [1, 15] was “vomiting”. The vomiting ([1]; Lumbosacral spondylitis without myelopathy, 6 h-8 h, without naltrexone) was 6 h-8 h: vomiting, the constipation [1, 16] was “constipation” and the loss of appetite [1, 16] was “loss of appetite”. For the same compound, the nausea [1, 16] was “nausea”, the vertigo [1, 16] was “vertigo” and the vomiting ([1]; Nonspecific coccyx disorders, 4 h, without naltrexone) was 4 h: recurrent vomiting. For the same compound, the nausea [1, 17] was 6 h: vomiting (3), nausea (3), the vomiting [1, 17] was 6 h: vomiting (3), nausea (3) and the asthenia ([1]; Nonspecific coccyx disorders, 8 h, without naltrexone) was 8 h: asthenia. For the same compound, the “side-effects (grade printed beside morphine)” value ([1]; Nonspecific coccyx disorders, time not given, without naltrexone) was “morphine (0)”, the nausea [1, 18] was “nausea” and the vertigo [1, 18] was “vertigo”. The vomiting [1, 18] was 4, the nausea [1, 19] was 2 and the pruritus [1, 19] was 4. The vomiting [1, 19] was “ing (2), urinary retention (2)”, the constipation [1, 20] was “constipation (3), drowsiness (3),” and the drowsiness [1, 20] was “constipation (3), drowsiness (3),”. For the same compound, the constipation [1, 21] was “tion (1)”, the loss of appetite [1, 21] was “nausea (4), loss of appetite (4),” and the nausea [1, 21] was “nausea (4), loss of appetite (4),”. For the same compound, the vertigo [1, 21] was 4, the vomiting [1, 21] was “vomiting” and the constipation [1, 22] was “constipation”. The pruritus [1, 22] was “pruritus (3)”, the headache [1, 23] was “headache” and the nausea [1, 23] was 4. The pruritus [1, 23] was 1, the sweating [1, 23] was “sweating” and the vomiting [1, 23] was “vomiting”. The Efficacy [2, 3] was 2 h: 30-40%, the Efficacy ([2]; Algoneurodystrophy, 8 h, without naltrexone) was 8 h: 80% and the Efficacy ([2]; Algoneurodystrophy, 14 h, without naltrexone) was 14 h: 70%. For the same compound, the Efficacy ([2]; Lumbosacral spondylitis without myelopathy, 2 h-24 h, without naltrexone) was 2 h-24 h: 80%, the Efficacy ([2]; Nonspecific coccyx disorders, without naltrexone) was “Efficacy <30%” and the Efficacy [2, 21] was “Efficacy: 100%”.

In the case of `O=C1CC[C@@]2(O)[C@H]3Cc4ccc(O)c5c4[C@@]2(CCN3CC2CC2)[C@H]1O5` [naltrexone], the chest pain ([1]; Back pain, h 17.30, with naltrexone) is reported as “chest pain”, the tachycardia ([1]; Back pain, h 18.30, with naltrexone) is reported as “h 18.30: tachycardia” and the benefit ([1]; Diabetes mellitus type II, with naltrexone) is reported as “benefit 100%”. The drowsiness ([1]; Lumbago, 1 h, with naltrexone) was 1 h: drowsiness (1), the pruritus ([1]; Lumbago, 2 h, with naltrexone) was 2 h: pruritus (2) and the drowsiness ([1]; Lumbago, 4 h, with naltrexone) was 4 h: drowsiness (2), pruritus (2). For the same compound, the pruritus ([1]; Lumbago, 4 h, with naltrexone) was 4 h: drowsiness (2), pruritus (2), the drowsiness ([1]; Lumbago, 6 h, with naltrexone) was 1 and the pruritus ([1]; Lumbago, 6 h, with naltrexone) was 2. For the same compound, the constipation [1, 24] was “constipation”, the drowsiness [1, 24] was “drowsiness” and the nausea [1, 24] was “nausea”. For the same compound, the sweating [1, 24] was “sweating”, the vertigo [1, 24] was “vertigo” and the vomiting [1, 24] was “vomiting”. The side-effects ([1]; Persistent spinal pain syndrome of uncertain aetiology, with naltrexone) was “none”, the nausea [1, 25] was 2 and the vomiting [1, 25] was “vomiting (2), urinary”. It also gave a pruritus [1, 26] of 4, a urinary retention [1, 26] of 2 and a pruritus [1, 27] of 1. The urinary retention [1, 27] was “urinary retention (1)”, the constipation [1, 28] was “constipation (3), drowsiness” and the drowsiness [1, 28] was 3. The urinary retention [1, 28] was “short-lived”, the “pruritus improved by” value ([1]; Secondary malignancies of bone and marrow, with naltrexone) was 90% and the numbness [1, 29] was 4 h: pruritus (1), numbness (1). For the same compound, the pruritus [1, 29] was 4 h: pruritus (1), numbness (1), the nausea [1, 30] was “nausea (1)” and the numbness [1, 30] was 6 h: pruritus (1), numbness (1),. For the same compound, the pruritus [1, 30] was 6 h: pruritus (1), numbness (1),, the nausea ([1]; Spinal pain, 8 h, with naltrexone) was 8 h: nausea (1) and the nausea ([1]; Stenosis of the lumbar spinal canal, with naltrexone) was “nausea (1)”. For the same compound, the Efficacy ([2]; Lumbago, 1 h, with naltrexone) was 1 h: 30-50%, the Efficacy ([2]; Lumbago, 4 h-8 h, with naltrexone) was 4 h-8 h: >50% and the Efficacy ([2]; Spinal pain, 1 h-8 h, at rest, with naltrexone) was 1 h-8 h: at rest 100%, under. For the same compound, the Efficacy ([2]; Spinal pain, 1 h-8 h, under strain, with naltrexone) was “strain 70%”.
